Values of other authors as cited in patent publication US4657924A, “Nafazatrom as a lipoxygenase inhibitor” (priority 1983, dated 1987).

Tests used:
cyclooxygenase = conditions: stated disadvantage; cited from earlier work
[1] = system: synthesis of prostaglandins from arachidonic acid; conditions: comparison with nafazatrom; cited from earlier work

Row | Structure (SMILES) | activity of known lipoxygenase inhibitors as cyclooxygenase inhibitors (cyclooxygenase) | action on the synthesis of prostaglandins from arachidonic acid [1]
1 | CCCCCC#CCC#CCC#CCC#CCCCC(=O)O [5,8,11,14-eicosatetrainoic acid] | either at the same time active as cyclooxygenase inhibitors or active only in very high concentrations | –
2 | COc1ccc2c(c1)c(CC(=O)O)c(C)n2C(=O)c1ccc(Cl)cc1 [indomethacin] | – | overall inhibiting action
3 | CC(Cc1ccc(O)c(O)c1)C(C)Cc1ccc(O)c(O)c1 (stereo not shown) [nordihydroguaiaretic acid] | either at the same time active as cyclooxygenase inhibitors or active only in very high concentrations | –
4 | O=C1CCN(c2ccccc2)N1 [phenidone] | either at the same time active as cyclooxygenase inhibitors or active only in very high concentrations | –
